Source: the NIST ThermoML archive (doi:10.1016/j.jct.2016.08.010)
Numbers after ± are expanded uncertainties.

Legend:
[1] = 100 kPa; for speed of sound: Frequency=3 MHz, Sing-around technique in a fixed-path interferometer; for mass density: Vibrating tube method
[2] = molar heat capacity at constant pressure; conditions: 100 kPa, Small sample (50 mg) DSC
[3] = xn = mol fraction of the nth substance listed; conditions: 100 kPa, Liquid; for speed of sound: Frequency=3 MHz, Sing-around technique in a fixed-path interferometer; for mass density: Vibrating tube method
[4] = molar heat capacity at constant pressure; xn = mol fraction of the nth substance listed; conditions: 100 kPa, Liquid, Small sample (50 mg) DSC

Structure (SMILES) | speed of sound ([1]; 293.15 K, Liquid) | mass density ([1]; 293.15 K, Liquid) | speed of sound ([1]; 298.15 K, Liquid) | mass density ([1]; 298.15 K, Liquid) | speed of sound ([1]; 303.15 K, Liquid) | mass density ([1]; 303.15 K, Liquid) | speed of sound ([1]; 308.15 K, Liquid) | mass density ([1]; 308.15 K, Liquid) | molar heat capacity at constant pressure ([2]; 293.15 K, Liquid) | molar heat capacity at constant pressure ([2]; 298.15 K, Liquid) | molar heat capacity at constant pressure ([2]; 303.15 K, Liquid) | molar heat capacity at constant pressure ([2]; 308.15 K, Liquid) | speed of sound ([3]; 293.15 K, x2 = 0) | mass density ([3]; 293.15 K, x2 = 0) | speed of sound ([3]; 298.15 K, x2 = 0) | mass density ([3]; 298.15 K, x2 = 0) | speed of sound ([3]; 303.15 K, x2 = 0) | mass density ([3]; 303.15 K, x2 = 0) | speed of sound ([3]; 308.15 K, x2 = 0) | mass density ([3]; 308.15 K, x2 = 0) | also measured
CCCCn1cc[n+](C)c1C.F[B-](F)(F)F [1-butyl-2,3-dimethylimidazolium tetrafluoroborate] |  |  |  |  |  |  |  |  |  |  |  |  |  |  |  |  |  |  |  |  | speed of sound ([1]; 293.15 K, Metastable liquid): 1659.7 ± 1.5 m/s; mass density ([1]; 293.15 K, Metastable liquid): 1193.5 ± 2 kg/m3; speed of sound ([1]; 298.15 K, Metastable liquid): 1645.7 ± 1.5 m/s; mass density ([1]; 298.15 K, Metastable liquid): 1191.8 ± 2 kg/m3; speed of sound ([1]; 303.15 K, Metastable liquid): 1632.5 ± 1.5 m/s; mass density ([1]; 303.15 K, Metastable liquid): 1189.7 ± 2 kg/m3; speed of sound ([1]; 308.15 K, Metastable liquid): 1619.8 ± 1.5 m/s; mass density ([1]; 308.15 K, Metastable liquid): 1187.9 ± 2 kg/m3; molar heat capacity at constant pressure ([2]; 293.15 K, Metastable liquid): 413.03 ± 8.8 J/K/mol; molar heat capacity at constant pressure ([2]; 298.15 K, Metastable liquid): 416.01 ± 8.9 J/K/mol; molar heat capacity at constant pressure ([2]; 303.15 K, Metastable liquid): 418.84 ± 8.9 J/K/mol; molar heat capacity at constant pressure ([2]; 308.15 K, Metastable liquid): 421.7 ± 9 J/K/mol
CCCCn1cc[n+](C)c1.F[B-](F)(F)F [1-butyl-3-methylimidazolium tetrafluoroborate] | 1578.1 ± 1.7 m/s | 1203.1 ± 2.1 kg/m3 | 1565.5 ± 1.7 m/s | 1198.9 ± 2.1 kg/m3 | 1554.1 ± 1.7 m/s | 1195.3 ± 2.1 kg/m3 | 1542.3 ± 1.7 m/s | 1191.7 ± 2.1 kg/m3 | 362.35 ± 7.7 J/K/mol | 365.12 ± 7.8 J/K/mol | 367.48 ± 7.8 J/K/mol | 369.88 ± 7.9 J/K/mol |  |  |  |  |  |  |  |  | 
CCCCn1cc[n+](C)c1.F[B-](F)(F)F [1-butyl-3-methylimidazolium tetrafluoroborate] + CCCCn1cc[n+](C)c1C.F[B-](F)(F)F |  |  |  |  |  |  |  |  |  |  |  |  | 1578.1 ± 1.7 m/s | 1203.1 ± 2.1 kg/m3 | 1565.5 ± 1.7 m/s | 1198.9 ± 2.1 kg/m3 | 1554.1 ± 1.7 m/s | 1195.3 ± 2.1 kg/m3 | 1542.3 ± 1.7 m/s | 1191.7 ± 2.1 kg/m3 | molar heat capacity at constant pressure ([4]; 293.15 K, x2 = 0): 362.35 ± 7.7 J/K/mol; molar heat capacity at constant pressure ([4]; 298.15 K, x2 = 0): 365.12 ± 7.8 J/K/mol; molar heat capacity at constant pressure ([4]; 303.15 K, x2 = 0): 367.48 ± 7.8 J/K/mol; molar heat capacity at constant pressure ([4]; 308.15 K, x2 = 0): 369.88 ± 7.9 J/K/mol
CCCCn1cc[n+](C)c1.F[B-](F)(F)F [1-butyl-3-methylimidazolium tetrafluoroborate] + CCn1cc[n+](C)c1.F[B-](F)(F)F |  |  |  |  |  |  |  |  |  |  |  |  |  |  |  |  |  |  |  |  | speed of sound ([3]; 293.15 K, x1 = 1): 1578.1 ± 1.7 m/s; mass density ([3]; 293.15 K, x1 = 1): 1203.1 ± 2.1 kg/m3; speed of sound ([3]; 298.15 K, x1 = 1): 1565.5 ± 1.7 m/s; mass density ([3]; 298.15 K, x1 = 1): 1198.9 ± 2.1 kg/m3; speed of sound ([3]; 303.15 K, x1 = 1): 1554.1 ± 1.7 m/s; mass density ([3]; 303.15 K, x1 = 1): 1195.3 ± 2.1 kg/m3; speed of sound ([3]; 308.15 K, x1 = 1): 1542.3 ± 1.7 m/s; mass density ([3]; 308.15 K, x1 = 1): 1191.7 ± 2.1 kg/m3; molar heat capacity at constant pressure ([4]; 293.15 K, x1 = 1): 362.35 ± 7.7 J/K/mol; molar heat capacity at constant pressure ([4]; 298.15 K, x1 = 1): 365.12 ± 7.8 J/K/mol; molar heat capacity at constant pressure ([4]; 303.15 K, x1 = 1): 367.48 ± 7.8 J/K/mol; molar heat capacity at constant pressure ([4]; 308.15 K, x1 = 1): 369.88 ± 7.9 J/K/mol
CCn1cc[n+](C)c1.F[B-](F)(F)F [1-ethyl-3-methylimidazolium tetrafluoroborate] | 1631.1 ± 1.6 m/s | 1283.9 ± 2 kg/m3 | 1619.2 ± 1.6 m/s | 1279.9 ± 2 kg/m3 | 1607.4 ± 1.6 m/s | 1276.3 ± 2 kg/m3 | 1596.2 ± 1.6 m/s | 1272.1 ± 2 kg/m3 | 303.2 ± 6.5 J/K/mol | 304.53 ± 6.5 J/K/mol | 306.29 ± 6.5 J/K/mol | 308.03 ± 6.6 J/K/mol |  |  |  |  |  |  |  |  | 
CCn1cc[n+](C)c1.F[B-](F)(F)F [1-ethyl-3-methylimidazolium tetrafluoroborate] + CCCCn1cc[n+](C)c1C.F[B-](F)(F)F |  |  |  |  |  |  |  |  |  |  |  |  | 1631.1 ± 1.6 m/s | 1283.9 ± 2 kg/m3 | 1619.2 ± 1.6 m/s | 1279.9 ± 2 kg/m3 | 1607.4 ± 1.6 m/s | 1276.3 ± 2 kg/m3 | 1596.2 ± 1.6 m/s | 1272.1 ± 2 kg/m3 | molar heat capacity at constant pressure ([4]; 293.15 K, x2 = 0): 303.2 ± 6.5 J/K/mol; molar heat capacity at constant pressure ([4]; 298.15 K, x2 = 0): 304.53 ± 6.5 J/K/mol; molar heat capacity at constant pressure ([4]; 303.15 K, x2 = 0): 306.29 ± 6.5 J/K/mol; molar heat capacity at constant pressure ([4]; 308.15 K, x2 = 0): 308.03 ± 6.6 J/K/mol
